Source: article PMC12838479 (Fluids and Barriers of the CNS, 2025)

How the values were obtained:
[1] = test system: human induced pluripotent stem cell (iPSC)-derived brain endothelial-like cells (iBECs); assay: In vitro monolayer iBEC permeability (Transwell leakage) versus TEER; type: in vitro ADME; conditions: iBEC monolayers, all TEER levels
Description: In Vitro BBB model: Differentiation of iBECs: The varied TEERs of iBECs were achieved during initial experiments that optimized seeding densities for differentiation of the GM25256 iPSC line. iBECs were differentiated from the GM25256 cell line using protocols described by Hollmann et al.. These resulting iBECs have been previously characterized to have many BEC traits including expression of high TEER levels and GLUT1, CLDN5, VE-Cad, PECAM-1, ZO-1, and OCLN proteins. Briefly, iPSCs were grown in E8 Medium on Matrigel in 6-well plates. When colonies were large and nearly touching, but prior to confluence, iPSCs were washed once with DPBS (Thermo Fisher Scientific) and incubated with Accutase (Stem Cell Technologies) for 3 min to yield a single cell suspension. Cells were collected via centrifugation, resuspended in E8, and counted using a hemocytometer. […] To assess barrier properties, TEER was measured 24 h after subculture using an EVOM2 voltohmeter with an EndOhm cup chamber (World Precision Instruments). […] TEER was measured approximately every 24 h thereafter. […]
Leakage was further assessed after 1–14 days post-subculture by placing in the input medium, consisting of HESFM + 1% BSA, 0.1 µCi ^14C-sucrose and 1 million CPM ^99mTc-DTPA or 3 million CPM ^99mTc-albumin per Transwell. […] Then, the radioactivity was counted in a Tricarb beta counter (Perkin Elmer) to measure ^14C-sucrose levels. […]

BBB [2] = assay: Multiple-time regression analysis of BBB uptake (Ki, Vi) in control and LPS-treated mice; type: in vivo
Source text: (§1) where t is the time between i.v. injection and blood draw, Cp is the level of radioactivity in serum (expressed as %Inj/ml), Cpt is the level of radioactivity in serum at time t, and τ is the dummy variable for time. Exposure time corrects for the clearance of the compound of interest from blood. The Y-intercept measures Vi (in units of µl/g), which is the vascular space and initial luminal binding at t = 0. Ki and Vi values are reported with their standard errors and the number of mice included in the linear portion of the regression curve. Slopes and intercepts were compared statistically with program in Prism 10.0 (GraphPad Inc, San Diego, CA). The percent of the injected dose that entered each g of brain (%Inj/g) was calculated after washout of the vascular space using the equation: […]

BBB [3] = assay: Single time point (10 min) brain/serum ratio after iv co-injection in control and LPS-treated mice; conditions: for increase in brain/serum ratio (leakiness): three dose LPS vs control; for brain region permeability change: 10 min after iv injection, one-way ANOVA per region
Source text: (§2) Treatment with LPS: Male CD-1 mice were purchased from Charles River and studied at 8–12 weeks of age. All animal studies were approved by the Institutional Animal Care and Use Committee of the Veterans Affairs Puget Sound Health Care System, an IACUC approved institution, in compliance with the Association for Assessment and Accreditation of Laboratory Animal Care International. Lipopolysaccharide (LPS) derived from Salmonella enterica subtype typhimurium (#L6511) was purchased from Sigma Chemical Company. Mice were given IP injections of approximately 0.1 ml of saline at 0, 6, or 24 h with LPS included in no injections, in only the single 0 h injection, or in all (0, 6, and 24 h) injections at a dose of 3 mg/kg LPS. Mice were studied 28 h after the 0 h injection (4 h after the last injection).
(§3) After a specified time, the abdomen was opened and arterial blood obtained from the abdominal aorta and immediately the thorax was opened, the descending thoracic aorta was clamped, both jugular veins were severed, the left ventricle of the heart was cannulated, and 20 ml of cold LR-BSA perfused in 60 s via the left ventricle of the heart in order to wash out the vascular space of the brain. After this, brains were collected and counted in a gamma counter. […] Brain/serum ratios are expressed in units of µl/g.
(§4) In some studies, mice were studied only at 10 min after the jugular injection of radioactivity. For multiple-time regression analysis, mice were sacrificed at 1, 2, 5, 10, 15, and 30 min after the jugular injection.

BBB [4] = assay: Percent of the injected dose that entered each g of brain (%Inj/g), 10 min; type: in vivo, mice; conditions: for %Inj/g-brain: 10 min; for increase in %Inj/g-brain: three injections of LPS vs control
Source text: as §1
where cpm/g is the level of radioactivity in the brain tissue, g is the weight of the brain tissue, and cpmi is the amount of radioactivity injected intravenously.

[5] = Single time point (10 min) brain/serum ratio after iv co-injection in control and LPS-treated mice; conditions: male, CD-1, mouse, in vivo
Source text: as §2, §3, §4

[6] = 10 min, DTPA and albumin co-injected

| Compound | in vitro permeability (Pe) compared with simultaneously studied sucrose [1] | Vi (vascular space and initial luminal binding) (BBB [2]; control mice) [µL/g] | Vi (vascular space and initial luminal binding) (BBB [2]; single injection of LPS) [µL/g] | Vi (vascular space and initial luminal binding) (BBB [2]; three injections of LPS) [µL/g] | increase in brain/serum ratio (leakiness) (BBB [3]; [6]) [%] | %Inj/g-brain (BBB [4]; control mice) [%Inj/g-brain] | increase in %Inj/g-brain (BBB [4]) [%] | %Inj/g-brain (BBB [4]; three injections of LPS) [%Inj/g-brain] | also measured |
| --- | --- | --- | --- | --- | --- | --- | --- | --- | --- |
| bovine serum albumin | much lower penetration than sucrose at all TEER levels | 0.245 ± 0.0431 | 0.197 ± 0.0438 | 0.325 ± 0.0893 | 111 | 0.026 | 81 | 0.0490 |  |
| OC[C@H]1O[C@@](CO)(O[C@H]2O[C@H](CO)[C@@H](O)[C@H](O)[C@H]2O)[C@@H](O)[C@@H]1O [sucrose] |  | 8.43 ± 1.26 | 16.2 | 14.5 ± 4.82 |  |  |  |  | Kp at 10 min [5]: 0.00402 to 0.00518 |
| O=C(O)CN(CCN(CC(=O)O)CC(=O)O)CCN(CC(=O)O)CC(=O)O (99mTc complex, metal not drawn) [DTPA, Diethylenetriaminepentaacetic acid] | essentially identical in vitro results | 1.62 ± 0.29 | 1.43 ± 0.334 | 1.487 ± 1.104 | 136 | 0.035 | 117 | 0.0760 | mean percent increase in permeability of 4 sessions (BBB [3]; 3 dose injection of LPS, DTPA and sucrose co-injected): 79.2 +/- 16%; brain region permeability change (BBB [3]; 3 injections of LPS): all regions except the olfactory bulb had a significant increase; detection of BBB disruption (BBB [3]; 10 min, DTPA and albumin co-injected, LPSx1 and LPSx3): showed disruption at the single dose of LPS as well as at the three doses; control brain/serum ratio relative to albumin (BBB [3]; 10 min, simultaneous injection of DTPA and albumin, control mice): about 5 fold; % change of brain/serum ratio relative to respective Control (BBB [3]; LPSx1, Day 1): 12%; % change of brain/serum ratio relative to respective Control (BBB [3]; LPSx1, Day 2): -0.025%; % change of brain/serum ratio relative to respective Control (BBB [3]; LPSx1, Repeat Day 2): 29%; % change of brain/serum ratio relative to respective Control (BBB [3]; LPSx3, Day 1): 79%; % change of brain/serum ratio relative to respective Control (BBB [3]; LPSx3, Day 2): 57%; BBB disruption, combined data of 4 sessions (BBB [3]; one injection of LPS): did not disrupt the BBB; brain region permeability change (BBB [3]; single injection of LPS): No brain region had a statistically significant increase in permeability; increase in permeation, combined data of 4 sessions (BBB [3]; three injections of LPS): 69% |
